Reference: patent US9447100B2, “Substituted pyrazolo[1,5-A] pyrimidines as calcium receptor modulating agents” (Takeda Pharmaceutical Company Limited, priority 2002, dated 2016)
Where a name gives a salt, the structure may show the parent alone.

| SMILES | melting point [°C] |
| --- | --- |
| CC(NC(=O)c1cnn2c1N[C@H](c1ccccc1)C[C@@H]2C(F)(F)F)C(=O)c1ccccc1 (stereo in doubt) [Example 291, N-(1-methyl-2-oxo-2-phenylethyl)-5-phenyl-7-(trifluoromethyl)-4,5,6,7-tetrahydropyrazolo[1,5-a]pyrimidine-3-carboxamide] | 178 to 179 |
| CCCC1(NC(=O)c2cnn3c2NC(c2ccccc2)CC3(C)C)CCCCC1 (stereo not drawn) [Example 619, 7,7-dimethyl-5-phenyl-N-(1-propylcyclohexyl)-4,5,6,7-tetrahydropyrazolo[1,5-a]pyrimidine-3-carboxamide] | 152 to 153 |
| CCCCOC(=O)CCc1ccc(C(CC)(CC)NC(=O)c2cnn3c2NC(c2ccccc2)CC3(C)C)cc1 (stereo not drawn) (as salt: HCl) [Example 815, butyl 3-(4-(1-(((7,7-dimethyl-5-phenyl-4,5,6,7-tetrahydropyrazolo[1,5-a]pyrimidin-3-yl)carbonyl)amino)-1-ethyl-propyl)phenyl)propanoate] | 143 to 144 |
| CCC(CC)(NC(=O)c1c(C)nn2c1NC(c1ccccc1)CC2(C)C)c1ccc(Cl)cc1 (stereo not drawn) [Example 696, N-(1-(4-chlorophenyl)-1-ethylpropyl)-2,7,7-trimethyl-5-phenyl-4,5,6,7-tetrahydropyrazolo[1,5-a]pyrimidine-3-carboxamide] | 146 to 148 |
| CCC1(NC(=O)c2cnn3c2NC(c2ccccc2)CC3(C)C)CCS(=O)(=O)CC1 (stereo not drawn) [Example 617, N-(4-ethyl-1,1-dioxidotetrahydro-2H-thiopyran-4-yl)-7,7-dimethyl-5-phenyl-4,5,6,7-tetrahydropyrazolo[1,5-a]pyrimidine-3-carboxamide] | 155 to 156 |
| CCC(NC(=O)c1cnn2c1NC(c1ccccc1)CC2C(F)(F)F)c1ccccc1Br (stereo not drawn) [Example 401, N-(1-(2-bromophenyl)propyl)-5-phenyl-7-(trifluoromethyl)-4,5,6,7-tetrahydropyrazolo[1,5-a]pyrimidine-3-carboxamide] | 236 to 237 |
| CCCCOC(=O)CCCOc1ccc(C(CC)(CC)NC(=O)c2cnn3c2NC(c2ccccc2)CC3(C)C)cc1 (stereo not drawn) [Example 818, butyl 4-(4-(1-(((7,7-dimethyl-5-phenyl-4,5,6,7-tetrahydropyrazolo[1,5-a]pyrimidin-3-yl)carbonyl)amino)-1-ethyl-propyl)phenoxy)butanoate] | 133 to 134 |
| Cc1ccc(C2CC(C)(C)n3ncc(C(=O)O)c3N2)c(C)c1 (stereo not drawn) [Example 952, 5-(2,4-dimethylphenyl)-7,7-dimethyl-4,5,6,7-tetrahydropyrazolo[1,5-a]pyrimidine-3-carboxylic acid] | 155 to 157 |
| CCC(CC)(NC(=O)c1cnn2c1NC(c1ccccc1OC)CC2(C)C)c1ccc(C)cc1 (stereo not drawn) (as salt: HCl) [Example 964, N-[1-ethyl-1-(4-methylphenyl)propyl]-5-(2-methoxyphenyl)-7,7-dimethyl-4,5,6,7-tetrahydropyrazolo[1,5-a]pyrimidine-3-carboxamide] | 158 to 159 |
| CCC(CC)(CC)NC(=O)c1cnn2c1NC(c1ccccc1)CC2(C)C (stereo not drawn) [Example 616, N-(1,1-diethylpropyl)-7,7-dimethyl-5-phenyl-4,5,6,7-tetrahydropyrazolo[1,5-a]pyrimidine-3-carboxamide] | 93 to 94 |
| CCC1(CC)C[C@@H](O)CN1C(=O)c1c(C)nn2c1N[C@@H](c1ccccc1)CC2(C)C (as salt: HCl) [Example 1098, (3R)-5,5-diethyl-1-(((5R)-2,7,7-trimethyl-5-phenyl-4,5,6,7-tetrahydropyrazolo[1,5-a]pyrimidin-3-yl)carbonyl)-3-pyrrolidinol] | 140 to 142 |
| CCC(CC)(NC(=O)c1cnn2c1NC(c1ccccc1)CC2(C)C)c1ccc(Cl)cc1Cl (stereo not drawn) [Example 680, N-(1-(2,4-dichlorophenyl)-1-ethylpropyl)-7,7-dimethyl-5-phenyl-4,5,6,7-tetrahydropyrazolo[1,5-a]pyrimidine-3-carboxamide] | 220 to 222 |
| CNC(=O)c1cnn2c1NC(c1ccccc1)CC2(C)C (stereo not drawn) [Example 768, N,7,7-trimethyl-5-phenyl-4,5,6,7-tetrahydropyrazolo[1,5-a]pyrimidine-3-carboxamide] | 116 to 117 |
| O=C(O)c1cnn2c1NC(c1ccc(Cl)cc1)CC2C(F)(F)F (stereo not drawn) [Example 26, 5-(4-chlorophenyl)-7-(trifluoromethyl)-4,5,6,7-tetrahydropyrazolo[1,5-a]pyrimidine-3-carboxylic acid] | 186 to 187 |
| CCC(CC)(NC(=O)c1cnn2c1NC(c1ccccc1)CC2(C)C)c1ccc(OCCCC(=O)O)cc1 (stereo not drawn) [Example 771, 4-(4-(1-(((7,7-dimethyl-5-phenyl-4,5,6,7-tetrahydropyrazolo[1,5-a]pyrimidin-3-yl)carbonyl)amino)-1-ethyl-propyl)phenoxy)butanoic acid] | 170 to 171 |
| CCC(NC(=O)c1cnn2c1NC(c1ccccc1)CC2(C)C)c1ccccc1Br (stereo not drawn) [Example 416, N-(1-(2-bromophenyl)propyl)-7,7-dimethyl-5-phenyl-4,5,6,7-tetrahydropyrazolo[1,5-a]pyrimidine-3-carboxamide] | 200 to 201 |
| COc1ccccc1C1CC(C)(C)n2nc(C)c(C(=O)O)c2N1 (stereo not drawn) [Example 944, 5-(2-methoxyphenyl)-2,7,7-trimethyl-4,5,6,7-tetrahydropyrazolo[1,5-a]pyrimidine-3-carboxylic acid] | 198 to 199 |
| CCC(CC)(NC(=O)c1c(C)nn2c1N[C@@H](c1ccccc1)CC2(C)C)c1ccc(I)cc1 (as salt: HCl) [Example 1073, (5R)-N-(1-ethyl-1-(4-iodophenyl)propyl)-2,7,7-trimethyl-5-phenyl-4,5,6,7-tetrahydropyrazolo[1,5-a]pyrimidine-3-carboxamide] | 179 to 180 |
| CCC1(NC(=O)c2cnn3c2NC(c2ccccc2)CC3(C)C)CCCCCC1 (stereo not drawn) [Example 622, N-(1-ethylcycloheptyl)-7,7-dimethyl-5-phenyl-4,5,6,7-tetrahydropyrazolo[1,5-a]pyrimidine-3-carboxamide] | 129 to 130 |
| CCc1nn2c(c1C(=O)NC(CC)(CC)c1ccc(Cl)cc1)NC(c1ccccc1)CC2(C)C (stereo not drawn) [Example 758, N-(1-(4-chlorophenyl)-1-ethylpropyl)-2-ethyl-7,7-dimethyl-5-phenyl-4,5,6,7-tetrahydropyrazolo[1,5-a]pyrimidine-3-carboxamide] | 183 to 184 |
| Cc1ccc(C(C)(C)NC(=O)c2cnn3c2NC(c2ccccc2)CC3(C)C)cc1 (stereo not drawn) (as salt: HCl) [Example 793, 7,7-dimethyl-N-(1-methyl-1-(4-methylphenyl)ethyl)-5-phenyl-4,5,6,7-tetrahydropyrazolo[1,5-a]pyrimidine-3-carboxamide] | 150 to 151 |
| Cc1nn2c(c1C(=O)NC13CC4CC(CC(C4)C1)C3)NC(c1ccccc1)CC2C(F)(F)F (stereo not drawn) [Example 42] | 162 to 163 |
| CCC(CC)(NC(=O)c1cnn2c1NC(c1ccccc1)CC2(C)C)c1ccc(CCC(=O)O)cc1 (stereo not drawn) [Example 749, 3-(4-(1-(((7,7-dimethyl-5-phenyl-4,5,6,7-tetrahydropyrazolo[1,5-a]pyrimidin-3-yl)carbonyl)amino)-1-ethyl-propyl)phenyl)propanoic acid] | 240 to 241 |
| CCOC(=O)CCCCOc1ccc(C(CC)(CC)NC(=O)c2cnn3c2NC(c2ccccc2)CC3(C)C)cc1 (stereo not drawn) [Example 817, ethyl 5-(4-(1-(((7,7-dimethyl-5-phenyl-4,5,6,7-tetrahydropyrazolo[1,5-a]pyrimidin-3-yl)carbonyl)amino)-1-ethyl-propyl)phenoxy)pentanoate] | 120 to 121 |
